The text below walks through data of US12630600B2 (MEDIMMUNE LIMITED, priority 2022, dated 2026).

Assay [1] concerns the target T1, human GLP-1 receptor (hGLP-1R) (Homo sapiens, UniProt P43220).
T1 construct: expressed in transfected cells; host or cells: CHO
Nature of the assay: cAMP production (HTRF) in CHO cells expressing human GLP-1 receptor. It counts as cell-based. To be noted: for EC50: geometric mean, cAMP; for % Relative Potency Ratio: % GLP-1R activity relative to GLP-1 / % GlucR activity relative to glucagon. Background: cAMP levels reflect the balance of adenylyl cyclase and phosphodiesterase activity.

Assay [2] deals with T2, human glucagon receptor (hGCGR) (Homo sapiens, UniProt P47871).
T2 construct: expressed in transfected cells; host or cells: CHO
Nature of the assay: cAMP production (HTRF) in CHO cells expressing human glucagon receptor. It counts as cell-based. As to the method:
Cells were re-suspended in assay buffer at a batch-dependent optimized concentration (typically hGLP-1R cells at 1×10^5 cells/mL, hGCGR cells at 2×10^5 cells/mL).
Cells were added to the assay plate using a multidrop dispenser and incubated at room temperature for 30 minutes before measuring the cAMP level using a cAMP dynamic 2 homogeneous time resolved Fluorescence (HTRF) kit (Cisbio Bioassays #62AM4PEJ) following the two-step protocol as per manufacturer's recommendations. In brief, anti-cAMP cryptate (donor fluorophore) and cAMP-d2 (acceptor fluorophore) were made up separately by diluting each 1 in 20 in conjugate and lysis buffer provided in the kit. Anti-cAMP cryptate was added to all wells of the assay plate, followed by cAMP-d2 added to all wells except non-specific binding (NSB) wells (to which conjugate and lysis buffer was added).
Data was transformed to % Delta F as described in the manufacturer's guidelines and analyzed by 4-parameter logistic fit to determine EC50 values.

[3] abbreviates: Table 8, peptides modified at position 24, CHO cells, read-out: hGLP-1R EC50.
Where [4] appears, read: Table 8, peptides modified at position 24, geometric mean, CHO cells, read-out: hGluc-R EC50.
[5] abbreviates: Table 7, modification at position 20, CHO cells expressing hGLP-1R, read-out: hGLP-1R EC50.
[6] abbreviates: Table 7, modification at position 20, CHO cells expressing hGCGR, geometric mean, read-out: hGluc-R EC50.
[7] abbreviates: hGLP-1R EC50 (pM), Table 8, peptides modified at position 24, CHO cells.
The mark [8] stands for this setting: hGluc-R EC50 (pM), Table 8, peptides modified at position 24, geometric mean, CHO cells.

The structures appear in SMILES notation. Where two headings read alike, the source gives them in different places. Starred links: 1 amine or outer side, 2 acyl side, 3 side chain; linkers in the order of their positions; H or OH if unused. Non-standard residues stand in square brackets, D forms with d. Residues, ends and D or L forms follow the SMILES beside them. Groups on a side chain read outwards from the residue. *: point of attachment. C20 diacid = O=C(O)CCCCCCCCCCCCCCCCCCC(=O)*; C18 diacid = O=C(O)CCCCCCCCCCCCCCCCC(=O)*; Dip = N[C@H](C(=O)O)C(c1ccccc1)c1ccccc1; γGlu = O=C(O)[C@H](CCC(=O)[*:2])N[*:1]; X3 = O=C(CN(Cc1c[nH]cn1)[*:1])[*:2]; αMeF = C[C@](N)(Cc1ccccc1)C(=O)O; AEEA = NCCOCCOCC(=O)O; Aib = CC(C)(N)C(=O)O

T2 sequence (P47871 26-477): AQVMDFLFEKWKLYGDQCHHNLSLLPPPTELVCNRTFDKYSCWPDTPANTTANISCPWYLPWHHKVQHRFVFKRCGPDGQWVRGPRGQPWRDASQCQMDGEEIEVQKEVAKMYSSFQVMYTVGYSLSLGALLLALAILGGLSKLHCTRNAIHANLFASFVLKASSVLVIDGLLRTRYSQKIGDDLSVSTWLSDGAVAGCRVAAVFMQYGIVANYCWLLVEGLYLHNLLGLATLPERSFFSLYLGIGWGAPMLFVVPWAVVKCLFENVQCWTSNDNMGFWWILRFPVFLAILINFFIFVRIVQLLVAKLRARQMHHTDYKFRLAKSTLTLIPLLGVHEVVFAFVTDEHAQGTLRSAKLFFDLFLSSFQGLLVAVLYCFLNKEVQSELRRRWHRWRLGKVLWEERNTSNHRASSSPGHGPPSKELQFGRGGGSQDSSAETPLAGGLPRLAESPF
T1 sequence (P43220 24-463): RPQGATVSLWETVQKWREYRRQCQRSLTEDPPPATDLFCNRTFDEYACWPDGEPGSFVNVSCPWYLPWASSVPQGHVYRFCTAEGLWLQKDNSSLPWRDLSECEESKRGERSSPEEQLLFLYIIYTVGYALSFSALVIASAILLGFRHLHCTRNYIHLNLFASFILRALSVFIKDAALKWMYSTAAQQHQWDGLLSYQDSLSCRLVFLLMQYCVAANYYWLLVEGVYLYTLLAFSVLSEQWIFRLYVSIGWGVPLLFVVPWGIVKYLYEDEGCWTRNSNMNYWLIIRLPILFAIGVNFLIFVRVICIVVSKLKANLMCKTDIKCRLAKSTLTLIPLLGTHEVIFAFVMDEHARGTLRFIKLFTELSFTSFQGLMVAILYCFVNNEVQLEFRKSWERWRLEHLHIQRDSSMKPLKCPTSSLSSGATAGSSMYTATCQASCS

As to `CC[C@H](C)[C@H](NC(=O)C(C)(C)NC(=O)[C@H](CCCCNC(=O)COCCOCCNC(=O)COCCOCCNC(=O)CC[C@H](NC(=O)CC[C@H](NC(=O)CCCCCCCCCCCCCCCCC(=O)O)C(=O)O)C(=O)O)NC(=O)[C@@H](NC(=O)[C@](C)(Cc1ccccc1)NC(=O)[C@H](CC(=O)O)NC(=O)[C@H](CCC(N)=O)NC(=O)[C@H](C)NC(=O)[C@H](C)NC(=O)[C@H](CCCNC(=N)N)NC(=O)[C@H](CO)NC(=O)[C@H](CC(=O)O)NC(=O)[C@H](CC(C)C)NC(=O)[C@](C)(Cc1ccccc1)NC(=O)[C@H](CCCCN)NC(=O)[C@H](CO)NC(=O)[C@@H](NC(=O)[C@H](CC(=O)O)NC(=O)[C@H](CO)NC(=O)[C@@H](NC(=O)[C@](C)(Cc1ccccc1)NC(=O)[C@H](CO)NC(=O)CNC(=O)[C@H](Cc1c[nH]cn1)NC(=O)C(C)(C)NC(=O)[C@@H](N)Cc1c[nH]cn1)[C@@H](C)O)C(C)C)C(C)C)C(=O)N[C@@H](C)C(=O)N[C@@H](CC(N)=O)C(=O)N[C@H](C(N)=O)[C@@H](C)O` [Peptide 372] (H-H[Aib]HGS[αMeF]TSDVSK[αMeF]LDSRAAQD[αMeF]VK([AEEA-AEEA-γGlu-γGlu-C18 diacid])[Aib]IANT-NH2; N-terminus assumed), the concentration for a half-maximal effect (EC50) amounted to 71.8 pM in assay [1] (setting [3]) and 35.1 pM in assay [2] (setting [4]). The “% Relative Potency Ratio” value in assay [1] (Table 8) is reported as 1.0.

With `CC[C@H](C)[C@H](NC(=O)[C@H](Cc1c[nH]c2ccccc12)NC(=O)[C@H](CCCCNC(=O)COCCOCCNC(=O)COCCOCCNC(=O)CC[C@H](NC(=O)CC[C@H](NC(=O)CCCCCCCCCCCCCCCCCCC(=O)O)C(=O)O)C(=O)O)NC(=O)[C@@H](NC(=O)[C@H](Cc1ccccc1)NC(=O)[C@H](CC(=O)O)NC(=O)[C@H](CCC(N)=O)NC(=O)[C@H](C)NC(=O)[C@H](C)NC(=O)[C@H](CCCNC(=N)N)NC(=O)[C@H](CO)NC(=O)[C@H](CC(=O)O)NC(=O)[C@H](CC(C)C)NC(=O)[C@](C)(Cc1ccccc1)NC(=O)[C@H](CCCCN)NC(=O)[C@H](CO)NC(=O)[C@@H](NC(=O)[C@H](CC(=O)O)NC(=O)[C@H](CO)NC(=O)[C@@H](NC(=O)[C@](C)(Cc1ccccc1)NC(=O)[C@H](CO)NC(=O)CNC(=O)[C@H](Cc1c[nH]cn1)NC(=O)[C@H](CO)NC(=O)CNCc1c[nH]cn1)[C@@H](C)O)C(C)C)C(C)C)C(=O)N[C@@H](C)C(=O)N[C@@H](CC(N)=O)C(=O)N[C@H](C(N)=O)[C@@H](C)O` [Peptide 380] (H-[X3]SHGS[αMeF]TSDVSK[αMeF]LDSRAAQDFVK([AEEA-AEEA-γGlu-γGlu-C20 diacid])WIANT-NH2; N-terminus assumed), the results for the half-maximal effective concentration (EC50) in assay [1] (setting [3]) and in assay [2] (setting [4]) were 871 pM and 14900 pM, respectively.

`CC[C@H](C)[C@H](NC(=O)[C@H](Cc1c[nH]c2ccccc12)NC(=O)[C@H](CCCCNC(=O)CC[C@H](NC(=O)CCCCCCCCCCCCCCCCC(=O)O)C(=O)O)NC(=O)[C@@H](NC(=O)[C@H](Cc1ccccc1)NC(=O)[C@H](CC(=O)O)NC(=O)[C@H](CCC(N)=O)NC(=O)[C@H](C)NC(=O)[C@H](C)NC(=O)[C@H](CCCNC(=N)N)NC(=O)[C@H](CO)NC(=O)[C@H](CC(=O)O)NC(=O)[C@H](CC(C)C)NC(=O)[C@@H](NC(=O)[C@H](CCCCN)NC(=O)[C@H](CO)NC(=O)[C@@H](NC(=O)[C@H](CC(=O)O)NC(=O)[C@H](CO)NC(=O)[C@@H](NC(=O)[C@H](Cc1ccccc1)NC(=O)[C@H](CO)NC(=O)CNC(=O)[C@H](CCC(N)=O)NC(=O)C(C)(C)NC(=O)[C@@H](N)Cc1c[nH]cn1)[C@@H](C)O)C(C)C)C(c1ccccc1)c1ccccc1)C(C)C)C(=O)N[C@@H](C)C(=O)N[C@@H](CC(N)=O)C(=O)N[C@H](C(N)=O)[C@@H](C)O` [Peptide 343] (H-H[Aib]QGSFTSDVSK[Dip]LDSRAAQDFVK([γGlu-C18 diacid])WIANT-NH2): the values for the 50% effective concentration (EC50) in assay [1] (setting [5]) and in assay [2] (setting [6]) were 198 pM and 19600 pM, respectively. Besides, the “% Relative Potency Ratio” value was 196.1 in assay [1] (Table 7) and 4.2 in assay [1] (Table 8).

Regarding `CC[C@H](C)[C@H](NC(=O)[C@H](Cc1c[nH]c2ccccc12)NC(=O)[C@H](CCC(N)=O)NC(=O)[C@@H](NC(=O)[C@H](Cc1ccccc1)NC(=O)[C@H](CC(=O)O)NC(=O)[C@H](CCCCNC(=O)COCCOCCNC(=O)COCCOCCNC(=O)CC[C@H](NC(=O)CCCCCCCCCCCCCCCCC(=O)O)C(=O)O)NC(=O)[C@H](C)NC(=O)[C@H](C)NC(=O)[C@H](CCCNC(=N)N)NC(=O)[C@H](CO)NC(=O)[C@H](CC(=O)O)NC(=O)[C@H](CC(C)C)NC(=O)[C@](C)(Cc1ccccc1)NC(=O)[C@H](CCCCN)NC(=O)[C@H](CO)NC(=O)[C@@H](NC(=O)[C@H](CC(=O)O)NC(=O)[C@H](CO)NC(=O)[C@@H](NC(=O)[C@](C)(Cc1ccccc1)NC(=O)[C@@H](NC(=O)CNC(=O)[C@H](CCC(N)=O)NC(=O)C(C)(C)NC(=O)[C@@H](N)Cc1c[nH]cn1)[C@@H](C)O)[C@@H](C)O)C(C)C)C(C)C)C(=O)N[C@@H](C)C(=O)N[C@@H](CC(N)=O)C(=O)N[C@H](C(N)=O)[C@@H](C)O` [Peptide 204] (H-H[Aib]QGT[αMeF]TSDVSK[αMeF]LDSRAAK([AEEA-AEEA-γGlu-C18 diacid])DFVQWIANT-NH2; N-terminus assumed), the values for the half-maximal effective concentration (EC50) in assay [1] (setting [5]) and in assay [2] (setting [6]) were 43.3 pM and 595 pM, respectively. Besides, the “% Relative Potency Ratio” value in assay [1] (Table 7) is 27.2.

Consider `CC[C@H](C)[C@H](NC(=O)[C@H](Cc1c[nH]c2ccccc12)NC(=O)[C@H](CCCCNC(=O)CC[C@H](NC(=O)CCCCCCCCCCCCCCCCC(=O)O)C(=O)O)NC(=O)[C@@H](NC(=O)[C@H](Cc1ccccc1)NC(=O)[C@H](CC(=O)O)NC(=O)[C@H](CCC(N)=O)NC(=O)[C@H](C)NC(=O)[C@H](C)NC(=O)[C@H](CCC(N)=O)NC(=O)[C@H](CO)NC(=O)[C@H](CC(=O)O)NC(=O)[C@H](CC(C)C)NC(=O)[C@](C)(Cc1ccccc1)NC(=O)[C@H](CCCCN)NC(=O)[C@H](CO)NC(=O)[C@@H](NC(=O)[C@H](CC(=O)O)NC(=O)[C@H](CO)NC(=O)[C@@H](NC(=O)[C@H](Cc1ccccc1)NC(=O)[C@@H](NC(=O)CNC(=O)[C@H](Cc1c[nH]cn1)NC(=O)C(C)(C)NC(=O)[C@@H](N)Cc1c[nH]cn1)[C@@H](C)O)[C@@H](C)O)C(C)C)C(C)C)C(=O)N[C@@H](C)C(=O)N[C@@H](CC(N)=O)C(=O)N[C@H](C(N)=O)[C@@H](C)O` [Peptide 346], for which the “% Relative Potency Ratio” value in assay [1] (Table 8) is on record as 0.1. Also, the EC50 was determined as 7320 pM in assay [1] (setting [7]) and 203 pM in assay [2] (setting [8]).

On to `CC(C)C[C@H](NC(=O)[C@H](Cc1c[nH]c2ccccc12)NC(=O)[C@H](CCCNC(=N)N)NC(=O)[C@@H](NC(=O)[C@H](Cc1ccccc1)NC(=O)[C@H](CC(=O)O)NC(=O)[C@H](CCC(N)=O)NC(=O)[C@H](C)NC(=O)[C@H](CCCNC(=N)N)NC(=O)[C@H](CCCCNC(=O)COCCOCCNC(=O)COCCOCCNC(=O)CC[C@H](NC(=O)CCCCCCCCCCCCCCCCCCC(=O)O)C(=O)O)NC(=O)[C@@H](NC(=O)[C@H](CC(=O)O)NC(=O)[C@H](CC(C)C)NC(=O)[C@](C)(Cc1ccccc1)NC(=O)[C@H](CCCCN)NC(=O)[C@H](CO)NC(=O)[C@@H](NC(=O)[C@H](CC(=O)O)NC(=O)[C@H](CO)NC(=O)[C@@H](NC(=O)[C@H](Cc1ccccc1)NC(=O)[C@@H](NC(=O)CNC(=O)[C@H](CCC(N)=O)NC(=O)C(C)(C)NC(=O)[C@@H](N)Cc1c[nH]cn1)[C@@H](C)O)[C@@H](C)O)C(C)C)[C@@H](C)O)C(C)C)C(=O)N[C@@H](CCC(=O)O)C(=O)N[C@@H](C)C(=O)NC(C)(C)C(=O)NCC(=O)O` [Peptide 407], for which the 50% effective concentration (EC50) came to 209 pM in assay [1] (Table 6, modification at position 17, CHO cells expressing hGLP-1R, read-out: hGLP-1R EC50) and 462 pM in assay [2] (Table 6, modification at position 17, CHO cells expressing hGCGR, geometric mean, read-out: hGluc-R EC50).

Regarding `CC[C@H](C)[C@H](NC(=O)[C@H](Cc1c[nH]c2ccccc12)NC(=O)[C@H](CCCCNC(=O)CC[C@H](NC(=O)CC[C@H](NC(=O)CCOCCOCCNC(=O)CC[C@H](NC(=O)CC[C@H](NC(=O)CCCCCCCCCCCCCCCCCCC(=O)O)C(=O)O)C(=O)O)C(=O)O)C(=O)O)NC(=O)[C@@H](NC(=O)[C@H](Cc1ccccc1)NC(=O)[C@H](CC(=O)O)NC(=O)[C@H](CCC(N)=O)NC(=O)[C@H](C)NC(=O)[C@H](C)NC(=O)[C@H](CCC(N)=O)NC(=O)[C@H](CO)NC(=O)[C@H](CC(=O)O)NC(=O)[C@H](CC(C)C)NC(=O)[C@](C)(Cc1ccccc1)NC(=O)[C@H](CCCCN)NC(=O)[C@H](CO)NC(=O)[C@@H](NC(=O)[C@H](CC(=O)O)NC(=O)[C@H](CO)NC(=O)[C@@H](NC(=O)[C@](C)(Cc1ccccc1)NC(=O)[C@H](CO)NC(=O)CNC(=O)[C@H](Cc1c[nH]cn1)NC(=O)C(C)(C)NC(=O)[C@@H](N)Cc1c[nH]cn1)[C@@H](C)O)C(C)C)C(C)C)C(=O)N[C@@H](C)C(=O)N[C@@H](CC(N)=O)C(=O)N[C@H](C(N)=O)[C@@H](C)O` [Peptide 357], in assay [1] (Table 8), the “% Relative Potency Ratio” value was 1.2. Moreover, the half-maximal effective concentration (EC50) in assay [1] (setting [7]) was determined as 917 pM; in assay [2] (setting [8]) it was 550 pM.

In general, EC50 refers to the concentration at which the effect is half-maximal.
